Publication PMC3103136 (2011)

Columns and labels:
[1] = target: T1, human tear lipocalin (TL) (Homo sapiens, UniProt P31025, C119L); assay: fluorescence titration, steady-state deconvoluted with time-resolved lifetimes; type: binding
[2] = target: human tear lipocalin (TL) mutant S61/S153 (Homo sapiens, UniProt P31025, C119L/C171S/C79S); assay: as above; type: binding
[3] = target: T1, human tear lipocalin (TL); assay: time-dependent fluorescence binding kinetics
[4] = target: human tear lipocalin (TL) mutant S61/S153 (Homo sapiens, UniProt P31025, C79S/C119L/C171S); assay: time-dependent fluorescence binding kinetics
Chain of human tear lipocalin (TL) mutant S61/S153 (Homo sapiens, UniProt P31025, C79S/C119L/C171S) (P31025 19-176 C79S/C119L/C171S): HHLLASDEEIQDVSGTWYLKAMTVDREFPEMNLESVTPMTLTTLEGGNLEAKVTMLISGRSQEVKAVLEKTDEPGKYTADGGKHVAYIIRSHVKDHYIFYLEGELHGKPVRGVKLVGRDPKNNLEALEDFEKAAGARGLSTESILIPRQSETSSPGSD

T1 sequence (P31025 19-176 C119L): as the sequence (P31025 19-176 C79S/C119L/C171S) above, with S61C, S153C counted along it
Chain of human tear lipocalin (TL) mutant S61/S153 (Homo sapiens, UniProt P31025, C119L/C171S/C79S) (P31025 19-176 C79S/C119L/C171S): as the sequence (P31025 19-176 C79S/C119L/C171S) above

SMILES: CN(C)c1cccc2c(S(=O)(=O)NCCCCCCCCCCC(=O)O)cccc12 [DAUDA, 11-((5-dimethylaminonaphthalene-1-sulfonyl)amino)undecanoic acid]
- Kd [1]: 2400 ± 300 nM
- Kd [2]: 2600 ± 300 nM

SMILES: CCCCCCCCCCCCCCCC(=O)OC[C@H](COP(=O)([O-])OCC[N+](C)(C)C)OC(=O)CCCCCCCCCCCNc1ccc([N+](=O)[O-])c2nonc12 [NBD C12-HPC, 2-(12-(7-nitrobenz-2-oxa-1,3-diazol-4-yl)amino)dodecanoyl-1-hexadecanoyl-sn-glycero-3-phosphocholine]
- time-dependent fluorescence binding kinetics (time constant) [3]: 32.2 ± 0.2 s
- time-dependent fluorescence binding kinetics (time constant) [4]: 22.2 ± 0.4 s

SMILES: C[C@H](CNc1ccc([N+](=O)[O-])c2nonc12)[C@H]1CC[C@H]2[C@@H]3CC=C4C[C@@H](O)CC[C@]4(C)[C@H]3CC[C@]12C [NBD cholesterol, 22-(N-(7-nitrobenz-2-oxa-1,3-diazol-4-yl)amino)-23,24-bisnor-5-cholen-3\u03B2-ol]
- time-dependent fluorescence binding kinetics (time constant) [3]: 11.8 ± 0.2 s
- time-dependent fluorescence binding kinetics (time constant) [4]: 3.3 ± 0.1 s
